This is an account of results in patent publication US6299865A, “Reduction of hair growth” (priority 2000, dated 2001).

Test [1] concerns tissue nonspecific form of alkaline phosphatase. Particulars: several species; cited from earlier work.
In the next test the test system is Human hair follicles. Nature of the test: Human hair follicle growth assay. The class given is cell-based. Particulars: 0.1 mM, control 0.77 ± .09. The method, then: Human hair follicles in growth phase (anagen) were isolated from face-lift tissue under a dissecting scope using a scalpel and watchmakers forceps. The skin was sliced into thin strips exposing 2-3 rows of follicles that could readily be dissected. Follicles were placed into 0.5 mL Williams E medium (Life Technologies, Gaithersburg, Md.) supplemented with […] L-glutamine, 10 μg/mL insulin, 10 ng/mL hydrocortisone, 100 units penicillin, 0.1 mg/mL streptomycin and 0.25 μg/mL amphotericin B. The follicles were incubated in 24 well plates (1 follicle/well) at 37° C. in an atmosphere of 5% CO2 and 95% air. Hair follicles were video recorded in the 24-well plates under the dissecting scope under a power of 20×. Typically, initial recordings were made on day 0 (day follicles were placed in culture) or day 1, and again on days 7 or 8. Hair follicle lengths were assessed using an image analysis software system (Computer Eyes and NIH Image).

The subject of test [2] is tissue-specific form of alkaline phosphatase. Particulars: stereoselective: only the L-form is active; uncompetitive; cited from earlier work.

As to `N=C(N)NCCCC[C@H](N)C(=O)O` [L-homoarginine], the “Inhibition of tissue nonspecific form of alkaline phosphatase” value in test [1] is reported as “acts as an inhibitor”.

Regarding `[Na+].[Na+].[Na+].[O]=[V]([O-])([O-])[O-]` [Sodium Orthovanadate, sodium orthovanadate], the “Hair Follicle Length Increase (Day 6-Day 0)” value in the test with Human hair follicles was 0.32 ± .06 mm.

For the compound `CC(C)C[C@H](N)C(=O)O` [leucine], in test [2], the “Inhibition of tissue-specific form of alkaline phosphatase” value is “inhibit”.

On to `N[C@@H](Cc1ccccc1)C(=O)O` [phenylalanine], for which, in test [2], the “Inhibition of tissue-specific form of alkaline phosphatase” value is recorded as “inhibit”.

For the compound `N[C@@H](Cc1c[nH]c2ccccc12)C(=O)O` [tryptophan], the “Inhibition of tissue-specific form of alkaline phosphatase” value in test [2] is reported as “inhibit”.
